Laboratory results as given in PubChem BioAssay AID1996.
Converted amounts (≈) assume the structure as drawn.

Conditions: buffer; pH 7.4; 200.0 µM

Row | SMILES | solubility kinetic [µg/mL]
1 | Cc1c(Cl)c([N+](=O)[O-])nn1CC(=O)NCCCN1CCOCC1 | > 51.9
2 | CC1C(=O)N2CCCc3cc(NS(=O)(=O)c4ccccc4)cc1c32 (configuration not stated) | > 51.4
3 | Fc1cccc(F)c1/C=N/N1CCOCC1 | > 33.9
4 | O=c1[nH]c(SCCN2CCOCC2)nc(O)c1-c1ccccc1 | 44.2 (≈ 133 µM)
5 | O=C1CC(C2CCCO2)C(=O)N1c1ccc(Cl)c(Cl)c1 (configuration not stated) | > 47.1
6 | Cc1ccnc(NC(=O)CCC(=O)c2cc(C)sc2C)c1 | 3.7 (≈ 12.2 µM)
7 | Cc1ccccc1NC(=S)N(Cc1ccccc1)Cc1cccs1 | 0.7 (≈ 1.99 µM)
8 | O=C(COc1ccc(S(=O)(=O)N2CCCCC2)cc1)N1CCCC1 | > 52.9
9 | O=C(CSCc1ccco1)N1CCc2ccccc21 | 36.9 (≈ 135 µM)
10 | CC(=O)Nc1cc2c3c(c1)CCC(=O)N3CCC2 | > 36.6
11 | CC1CC(C)(C)CC2(C1)NC(=O)N(CC(=O)N1CCN(S(=O)(=O)c3cccc(F)c3)CC1)C2=O (configuration not stated) | 4.9 (≈ 9.91 µM)
12 | O=C(Nc1ccccc1Cl)NC1CCCCCCC1 | 0.4 (≈ 1.42 µM)
13 | O=C(O)C1C2CCC(O2)C1C(=O)Nc1ccc(Cl)cc1F (configuration not stated) | > 47.1
14 | COc1cccc(C(=O)OCC(=O)NC23CC4CC(CC(C4)C2)C3)c1 | 19.8 (≈ 57.7 µM)
15 | CCCS(=O)(=O)Nc1ccc(-c2cn3c(n2)SCC3)cc1 | 44.5 (≈ 138 µM)
16 | Cc1cccc(C(=O)N/C(=C\c2ccco2)C(=O)N2CCCC2)c1 | > 48.7
17 | Cc1cccc(CC(=O)NCCN2CCCCC2)c1 | 32.5 (≈ 125 µM)
18 | Cc1ccc(C2NCCS2)cc1 (configuration not stated) | > 26.9
19 | Cc1nc2ccc(NC(=O)C3CCCCC3)cc2s1 | 13.2 (≈ 48.1 µM)
20 | O=C(O)Cc1csc(-c2cccc(F)c2)n1 | > 35.6
21 | Cc1cnc(=O)[nH]c1SCc1ccc([N+](=O)[O-])cc1 | 22.1 (≈ 79.7 µM)
22 | Cc1ccsc1C(=O)NNC(=S)NC1CCCCC1 | > 44.6
23 | CC(C)(C)c1ccc(C2(C)NC(=O)NC2=O)cc1 (configuration not stated) | 35.2 (≈ 143 µM)
24 | CC(CN1CCCC1)OC(=O)c1ccc(Cl)cc1.Cl (configuration not stated) | > 45.6

Row | SMILES | solubility kinetic [µg/mL]
25 | Cc1c(C(=O)N2CCCCC2)oc2ccccc12 | 32 (≈ 132 µM)
26 | CC1CN(C(=O)Nc2ccc(Br)cc2Cl)CC(C)O1 (configuration not stated) | 30.3 (≈ 87.2 µM)
27 | c1ccc(-c2nccc(-c3ccc4c(c3)OCO4)n2)cc1 | < 0.3
28 | Cc1noc(/C=C/c2cccnc2)c1[N+](=O)[O-] | 33.7 (≈ 146 µM)
29 | O=C(c1ccc(F)cc1)N1CCC(C(=O)N2CCN(c3ncccn3)CC2)CC1 | 59.2 (≈ 149 µM)
30 | Cc1cc(C)c(NC(=O)COC(=O)C2CCC(=O)N2)c(C)c1 (configuration not stated) | > 45.7
31 | CSc1nc(Nc2ccc(Cl)cc2)c(C#N)c(=O)[nH]1 | 7.8 (≈ 26.6 µM)
32 | O=C1NC(=Nc2cccc([N+](=O)[O-])c2)SC1(CO)CO | 41.2 (≈ 139 µM)
33 | CC1CCN(CC(=O)Nc2nccs2)CC1 | > 35.9
34 | CCCC1(c2ccccc2)NC(=O)N(CC(=O)Nc2ccc3c(c2)OCCO3)C1=O (configuration not stated) | 36 (≈ 87.9 µM)
35 | CN(C)C(=O)Oc1ccc2c(c1)O/C(=C\c1ccccc1)C2=O | 0.8 (≈ 2.59 µM)
36 | CCc1c(O)c(-c2ccccc2)c(=O)n(-c2ccccn2)c1-c1ccccc1 | > 55.3
37 | Cc1cc(F)c(F)c(C(=O)N2CCCCC2C)c1Cl (configuration not stated) | 34.6 (≈ 120 µM)
38 | N#Cc1nc(-c2ccccc2)oc1N1CCC(C(N)=O)CC1 | 39.7 (≈ 134 µM)
39 | Cc1cccn2c(=O)c3cc(C(=O)N4CCCCC4C)sc3nc12 (configuration not stated) | 13.1 (≈ 38.4 µM)
40 | Cc1ccc2cc(C#N)c(N3CCN(C(=O)c4ccccc4)CC3)nc2c1 | 4.1 (≈ 11.5 µM)
41 | CC(C)=CC(=O)OCC(=O)Nc1cc(C)cc(C)c1 | 3.7 (≈ 14.2 µM)
42 | COC(=O)c1ccc(OC(=O)N2CCOCC2)cc1 | 33.6 (≈ 127 µM)
43 | CCOc1nc(Nc2ccccc2F)nc(OCC)n1 | 10.4 (≈ 37.4 µM)
44 | Cc1nc(OCC(C)C)c2sc3nc4c(cc3c2n1)COC(C)(C)C4 | 14.6 (≈ 40.8 µM)
45 | N#CCCN1C(=O)C2(OCCO2)c2ccccc21 | > 36.6
46 | CC(C)N1CCC(=NNC(=O)c2cccs2)CC1 | > 39.8
47 | O=C(NCC1CCCCC1)c1ccc(Cl)nc1 | > 37.9
48 | CN1CCN(Cc2ccc3ccccc3c2)CC1 | 20.6 (≈ 85.7 µM)

Now from value to molecule:

Row | solubility kinetic [µg/mL] | SMILES
49 | > 35 | O=C(O)c1ccc(-c2cccc([N+](=O)[O-])c2)o1
50 | > 38.9 | CC(C)NC(=O)C1=NN(c2ccccc2)C(=O)CC1
51 | 4.5 (≈ 13.8 µM) | Cc1cccc(C(=O)OCC(=O)c2ccc3c(c2)NC(=O)CO3)c1
52 | 0.7 (≈ 2.02 µM) | COC(=O)c1ccc(NC(=O)N(c2ccccc2)c2ccccc2)cc1
53 | > 42.5 | O=C(NCCc1ccccc1)c1ccc2c(c1)OCCO2
54 | 0.7 (≈ 2.08 µM) | O=C(Cn1cc(C(=O)C2CC2)c2ccccc21)Nc1ccc(F)cc1
55 | > 48.2 | Cc1ccc(OCCn2cc(/C=C/C(=O)O)c3ccccc32)cc1
56 | > 38 | O=C(O)c1ccc(Cn2cnc3cccnc32)cc1
57 | 31.6 (≈ 74.5 µM) | O=C(Nc1cccc(S(=O)(=O)N2CCCCC2)c1)c1cncc(Br)c1
58 | > 38.7 | COc1cccc(C(=O)Nc2ccncc2)c1OC
59 | 34.2 (≈ 146 µM) | O=C(Nc1cc(Cl)ncn1)c1ccccc1
60 | < 0.4 | Cc1csc2c(=O)sc(NC(=O)c3ccc(F)cc3Cl)nc12
61 | > 45.5 | Cc1cccc(NC(=O)CCS(=O)(=O)c2ccccc2)c1
62 | > 71.2 | CN(c1ccc(OCC(=O)Nc2ccccc2C(=O)O)cc1)S(=O)(=O)c1ccc(Cl)cc1
63 | < 0.4 | COCCn1c(C)cc(O)c(C(=O)Nc2cccc(Cl)c2)c1=O
64 | > 41.7 | NC(=NCc1ccco1)NC(=O)c1ccc(Cl)cc1
65 | 18.1 (≈ 67.2 µM) | Cc1ccc(CC(=O)O/N=C(\N)c2ccncc2)cc1
66 | 3.6 (≈ 8.29 µM) | CCN(CC(=O)Nc1ccc2c(c1)OCCO2)C(=O)/C=C/c1cccc(C(F)(F)F)c1
67 | > 50.4 | CC(NC(=O)COc1cccnc1[N+](=O)[O-])c1ccc(Cl)cc1 (configuration not stated)
68 | > 47.7 | O=C(NC1CCN(c2ncccn2)CC1)c1c(F)cccc1F

Row | solubility kinetic [µg/mL] | SMILES
69 | 2.2 (≈ 7.52 µM) | Cc1ccc(CNC(=O)Cc2cn(C)c3ccccc23)cc1
70 | 1.9 (≈ 6.26 µM) | COc1cc2ccccc2cc1C(=O)N1CCc2ccccc21
71 | 17.7 (≈ 50.5 µM) | CCN(CC)C(=O)Cc1c(OC)ccc2cc(Br)ccc12
72 | 2.1 (≈ 8.29 µM) | COc1ccc(-c2nc(-c3cccnc3)no2)cc1
73 | 3.1 (≈ 10.2 µM) | Cc1ccc(C2N=C(N)Nc3nc(=O)c4ccccc4n32)cc1 (configuration not stated)
74 | 0.3 (≈ 0.774 µM) | O=C(Nc1ccc(F)cc1F)Nc1sccc1-c1nc2ccccc2s1
75 | 25.1 (≈ 102 µM) | COc1ccccc1Oc1ccccc1[N+](=O)[O-]
76 | 0.7 (≈ 3.6 µM) | Cc1cccc2nc3ccccc3nc12
77 | > 49.1 | Br.CC(=O)c1sc(Nc2ccc(C)cc2)nc1C
78 | 42.7 (≈ 144 µM) | COc1ccc(N(C)C(=O)c2sc(Cl)nc2C)cc1
79 | > 45.2 | O=C(CC(Cc1ccccc1)C(=O)O)Nc1ccc(F)cc1 (configuration not stated)
80 | 16.2 (≈ 52.7 µM) | O=C(CS(=O)(=O)c1ccc(F)cc1)NCc1ccccc1
81 | 42.1 (≈ 142 µM) | CCn1c(CCCNC(=O)c2ccco2)nc2ccccc21
82 | > 37.4 | O=Cc1cn(-c2ccccc2)nc1-c1ccncc1
83 | > 33.2 | CCCCC(=O)Nc1cccc(C(C)O)c1 (configuration not stated)
84 | 2.7 (≈ 8.59 µM) | Cc1ccc(NC(=S)NC2CCSc3ccccc32)cc1 (configuration not stated)
85 | 1.3 (≈ 5.11 µM) | O=C(Nc1nccs1)c1ccc2ccccc2c1
86 | 5.8 (≈ 15 µM) | Cc1ccc(SCC(=O)OCC(=O)Nc2ccc3[nH]c(=O)[nH]c3c2)cc1C
87 | > 72.6 | COc1ccc(C(CNS(=O)(=O)c2ccc(NC(C)=O)c(OC)c2)N2CCCC2)cc1.Cl (configuration not stated)
